Values of other authors in PubChem BioAssay AID1259409 (Chemical Carcinogenesis Research Information System (CCRIS), 2018).

Tested on: rodent chemically induced tumor inhibition, incidence and multiplicity
Assay: CCRIS tumor inhibitor studies
Conditions: Route [Inhibitor]: ORAL, Species: RAT, Promoter: NONE USED

Compound: CC1=C(/C=C/C(C)=C/C=C/C(C)=C/C=C2C(=O)CC(C)(C)CC2=O)C(C)(C)CCC1
- tumour outcome (control, treated, inhibition, significance) (Carcinogen: L-AZASERINE, 115-02-6, Dose [Inhibitor]: 1 MMOL/KG DIET DAILY FOR 365 D STARTING 1 WK AFTER COMPLETION OF CARCINOGEN TREATMENT (STUDY DURATION: 66 WK), Strain/Sex: WISTAR-LEWIS/FEMALE, Target Tissue: Type of Lesion: PANCREAS: ADENOMA, Dose [Carcinogen]: 10 MG/KG BW 1/WK FOR 15 WK): 50%, 33%, 34%, not significant
- tumour outcome (control, treated, inhibition, significance) (Carcinogen: L-AZASERINE, 115-02-6, Dose [Inhibitor]: 1 MMOL/KG DIET DAILY FOR 365 D STARTING 1 WK AFTER COMPLETION OF CARCINOGEN TREATMENT (STUDY DURATION: 66 WK), Strain/Sex: WISTAR-LEWIS/FEMALE, Target Tissue: Type of Lesion: PANCREAS: CARCINOMA IN SITU, Dose [Carcinogen]: 10 MG/KG BW 1/WK FOR 15 WK): 8%, 21%, -163%, not calculated
- tumour outcome (control, treated, inhibition, significance) (Carcinogen: L-AZASERINE, 115-02-6, Dose [Inhibitor]: 1 MMOL/KG DIET DAILY FOR 365 D STARTING 1 WK AFTER COMPLETION OF CARCINOGEN TREATMENT (STUDY DURATION: 66 WK), Strain/Sex: WISTAR-LEWIS/FEMALE, Target Tissue: Type of Lesion: PANCREAS: CARCINOMA, Dose [Carcinogen]: 10 MG/KG BW 1/WK FOR 15 WK): 13%, 4%, 69%, not significant
- tumour outcome (control, treated, inhibition, significance) (Carcinogen: L-AZASERINE, 115-02-6, Dose [Inhibitor]: 1 MMOL/KG DIET DAILY FOR 365 D STARTING 1 WK AFTER COMPLETION OF CARCINOGEN TREATMENT (STUDY DURATION: 66 WK), Strain/Sex: WISTAR-LEWIS/FEMALE, Target Tissue: Type of Lesion: PANCREAS: NEOPLASM, Dose [Carcinogen]: 10 MG/KG BW 1/WK FOR 15 WK): 71%, 58%, 18%, not significant
- tumour outcome (control, treated, inhibition, significance) (Carcinogen: L-AZASERINE, 115-02-6, Dose [Inhibitor]: 1 MMOL/KG DIET DAILY FOR 365 D STARTING 1 WK AFTER COMPLETION OF CARCINOGEN TREATMENT (STUDY DURATION: 66 WK), Strain/Sex: WISTAR-LEWIS/MALE, Target Tissue: Type of Lesion: PANCREAS: ADENOMA, Dose [Carcinogen]: 10 MG/KG BW 1/WK FOR 15 WK): 25%, 12%, 52%, not significant
- tumour outcome (control, treated, inhibition, significance) (Carcinogen: L-AZASERINE, 115-02-6, Dose [Inhibitor]: 1 MMOL/KG DIET DAILY FOR 365 D STARTING 1 WK AFTER COMPLETION OF CARCINOGEN TREATMENT (STUDY DURATION: 66 WK), Strain/Sex: WISTAR-LEWIS/MALE, Target Tissue: Type of Lesion: PANCREAS: CARCINOMA IN SITU, Dose [Carcinogen]: 10 MG/KG BW 1/WK FOR 15 WK): 29%, 56%, -93%, not significant
- tumour outcome (control, treated, inhibition, significance) (Carcinogen: L-AZASERINE, 115-02-6, Dose [Inhibitor]: 1 MMOL/KG DIET DAILY FOR 365 D STARTING 1 WK AFTER COMPLETION OF CARCINOGEN TREATMENT (STUDY DURATION: 66 WK), Strain/Sex: WISTAR-LEWIS/MALE, Target Tissue: Type of Lesion: PANCREAS: CARCINOMA, Dose [Carcinogen]: 10 MG/KG BW 1/WK FOR 15 WK): 46%, 16%, 65%, p<0.05
- tumour outcome (control, treated, inhibition, significance) (Carcinogen: L-AZASERINE, 115-02-6, Dose [Inhibitor]: 1 MMOL/KG DIET DAILY FOR 365 D STARTING 1 WK AFTER COMPLETION OF CARCINOGEN TREATMENT (STUDY DURATION: 66 WK), Strain/Sex: WISTAR-LEWIS/MALE, Target Tissue: Type of Lesion: PANCREAS: NEOPLASM, Dose [Carcinogen]: 10 MG/KG BW 1/WK FOR 15 WK): 100%, 84%, 16%, not significant
- tumour outcome (control, treated, inhibition, significance) (Carcinogen: L-AZASERINE, 115-02-6, Dose [Inhibitor]: 2 MMOL/KG DIET DAILY FOR 330 D STARTING 1 WK AFTER COMPLETION OF CARCINOGEN TREATMENT (STUDY DURATION: 66 WK), Strain/Sex: WISTAR-LEWIS/FEMALE, Target Tissue: Type of Lesion: PANCREAS: ADENOMA, Dose [Carcinogen]: 10 MG/KG BW 1/WK FOR 15 WK): 50%, 33%, 34%, not significant
- tumour outcome (control, treated, inhibition, significance) (Carcinogen: L-AZASERINE, 115-02-6, Dose [Inhibitor]: 2 MMOL/KG DIET DAILY FOR 330 D STARTING 1 WK AFTER COMPLETION OF CARCINOGEN TREATMENT (STUDY DURATION: 66 WK), Strain/Sex: WISTAR-LEWIS/FEMALE, Target Tissue: Type of Lesion: PANCREAS: CARCINOMA IN SITU, Dose [Carcinogen]: 10 MG/KG BW 1/WK FOR 15 WK): 8%, 17%, -113%, not calculated
- tumour outcome (control, treated, inhibition, significance) (Carcinogen: L-AZASERINE, 115-02-6, Dose [Inhibitor]: 2 MMOL/KG DIET DAILY FOR 330 D STARTING 1 WK AFTER COMPLETION OF CARCINOGEN TREATMENT (STUDY DURATION: 66 WK), Strain/Sex: WISTAR-LEWIS/FEMALE, Target Tissue: Type of Lesion: PANCREAS: CARCINOMA, Dose [Carcinogen]: 10 MG/KG BW 1/WK FOR 15 WK): 13%, 0%, 100%, not significant
- tumour outcome (control, treated, inhibition, significance) (Carcinogen: L-AZASERINE, 115-02-6, Dose [Inhibitor]: 2 MMOL/KG DIET DAILY FOR 330 D STARTING 1 WK AFTER COMPLETION OF CARCINOGEN TREATMENT (STUDY DURATION: 66 WK), Strain/Sex: WISTAR-LEWIS/FEMALE, Target Tissue: Type of Lesion: PANCREAS: NEOPLASM, Dose [Carcinogen]: 10 MG/KG BW 1/WK FOR 15 WK): 71%, 50%, 30%, p 0.14
- tumour outcome (control, treated, inhibition, significance) (Carcinogen: L-AZASERINE, 115-02-6, Dose [Inhibitor]: 2 MMOL/KG DIET DAILY FOR 330 D STARTING 1 WK AFTER COMPLETION OF CARCINOGEN TREATMENT (STUDY DURATION: 66 WK), Strain/Sex: WISTAR-LEWIS/MALE, Target Tissue: Type of Lesion: PANCREAS: ADENOMA, Dose [Carcinogen]: 10 MG/KG BW 1/WK FOR 15 WK): 25%, 40%, -60%, not significant
- tumour outcome (control, treated, inhibition, significance) (Carcinogen: L-AZASERINE, 115-02-6, Dose [Inhibitor]: 2 MMOL/KG DIET DAILY FOR 330 D STARTING 1 WK AFTER COMPLETION OF CARCINOGEN TREATMENT (STUDY DURATION: 66 WK), Strain/Sex: WISTAR-LEWIS/MALE, Target Tissue: Type of Lesion: PANCREAS: CARCINOMA IN SITU, Dose [Carcinogen]: 10 MG/KG BW 1/WK FOR 15 WK): 29%, 44%, -52%, not significant
- tumour outcome (control, treated, inhibition, significance) (Carcinogen: L-AZASERINE, 115-02-6, Dose [Inhibitor]: 2 MMOL/KG DIET DAILY FOR 330 D STARTING 1 WK AFTER COMPLETION OF CARCINOGEN TREATMENT (STUDY DURATION: 66 WK), Strain/Sex: WISTAR-LEWIS/MALE, Target Tissue: Type of Lesion: PANCREAS: CARCINOMA, Dose [Carcinogen]: 10 MG/KG BW 1/WK FOR 15 WK): 46%, 0%, 100%, p<0.05
- tumour outcome (control, treated, inhibition, significance) (Carcinogen: L-AZASERINE, 115-02-6, Dose [Inhibitor]: 2 MMOL/KG DIET DAILY FOR 330 D STARTING 1 WK AFTER COMPLETION OF CARCINOGEN TREATMENT (STUDY DURATION: 66 WK), Strain/Sex: WISTAR-LEWIS/MALE, Target Tissue: Type of Lesion: PANCREAS: NEOPLASM, Dose [Carcinogen]: 10 MG/KG BW 1/WK FOR 15 WK): 100%, 84%, 16%, not significant
- tumour outcome (control, treated, inhibition, significance) (Carcinogen: N-METHYL-N-NITROSOUREA, 684-93-5, Dose [Inhibitor]: 406 MG/KG DIET DAILY FOR 24 WK STARTING 5 D AFTER LAST CARCINOGEN DOSE (STUDY DURATION: 32 WK), Strain/Sex: F344/MALE, Target Tissue: Type of Lesion: COLON: SARCOMA, Dose [Carcinogen]: 0.5 MG 2/WK FOR 8 WK): 5/40 (13%), 3/40 (8%), 38%, not calculated
- tumour outcome (control, treated, inhibition, significance) (Carcinogen: N-METHYL-N-NITROSOUREA, 684-93-5, Dose [Inhibitor]: 406 MG/KG DIET DAILY FOR 24 WK STARTING 5 D AFTER LAST CARCINOGEN DOSE (STUDY DURATION: 32 WK), Strain/Sex: F344/MALE, Target Tissue: Type of Lesion: COLON: TUMOR, Dose [Carcinogen]: 0.5 MG 2/WK FOR 8 WK): 60%, 75%, -25%, not significant
- tumour outcome (control, treated, inhibition, significance) (Carcinogen: N-METHYL-N-NITROSOUREA, 684-93-5, Dose [Inhibitor]: 406 MG/KG DIET DAILY FOR 38 WK STARTING 5 D AFTER LAST CARCINOGEN DOSE (STUDY DURATION: 44 WK), Strain/Sex: F344/MALE, Target Tissue: Type of Lesion: COLON: TUMOR, Dose [Carcinogen]: 0.5 MG 2/WK FOR 6 WK): 62%, 49%, 21%, not significant
- tumour outcome (control, treated, inhibition, significance) (Carcinogen: N-METHYL-N-NITROSOUREA, 684-93-5, Dose [Inhibitor]: 406 MG/KG DIET DAILY FOR 48 WK STARTING 5 D AFTER LAST CARCINOGEN DOSE (STUDY DURATION: 52 WK), Strain/Sex: F344/MALE, Target Tissue: Type of Lesion: COLON: TUMOR, Dose [Carcinogen]: 0.5 MG 2/WK FOR 4 WK): 31%, 35%, -13%, not significant
